For this assay, the system named is IL-1β release from THP-1 cells. Kind of assay: IL-1β release assay. It is filed as cell-based. Particulars: Homo sapiens; PMA-treated THP-1 cells, 250 ng/mL LPS then 20 μM nigericin; cleaved IL-1β in media. As to the method: Approximately 1.5 million THP-1 cells were plated in each well of a 6-well TC plate and incubated with 40 nM PMA in RPMI (10% FBS, 1% Penstrep) for 24 hours. The media was then removed and cells were rested in RPMI (10% FBS, 1% Penstrep) for 24 hours after which time the media was removed and cells were pre-treated for 2 hours with various concentrations of compounds of interest (typically serial 3-fold dilution in RPMI+5% FBS, concentrations ranging from 1 μM to 0.5 nM) in RPMI (5% FBS). The media was again removed and cells were incubated with 250 ng/mL LPS and compounds of interest (concentrations as above) in RMPI (5% FBS) for 2 hours. The media was removed for a last time and cells were incubated with 20 μM nigericin and compounds of interest (concentrations as above) in Opti-MEM for 30 minutes. Cell media was then collected and the amount of cleaved IL-1β was determined using a JESS instrument (Protein Simple) and standard protocols. Cleaved Il-1β antibody was obtained from Cell Signaling (catalogue #83186S) and was used at 1:20 dilution in antibody diluent 2. Protein Simple 1× anti-Rabbit HRP secondary antibody was used along with Protein Simple luminol and peroxide for chemiluminescent detection. Primary antibody incubation time was increased from 30 minutes to 60 minutes.

On to `O=C(Nc1ccc(Oc2ccnc3[nH]cc(Cl)c23)cc1F)Nc1cc(C2CC2)nn1-c1ccccc1` [Compound I-11, 1-(4-((3-chloro-1H-pyrrolo[2,3-b]pyridin-4-yl)oxy)-2-fluorophenyl)-3-(3-cyclopropyl-1-phenyl-1H-pyrazol-5-yl)urea], for which the IC50 (as a rule, the concentration that gives 50% inhibition) was greater than 1000 nM.

For the origin of these results see patent US20240400551A1, “NEK7 INHIBITORS” (HALIA THERAPEUTICS, INC., priority 2021, published 2024).
